Results from ChEMBL document CHEMBL6071142, “Isoalantolactone/hydroxamic acid hybrids as potent dual STAT3/HDAC inhibitors and self-assembled nanoparticles for cancer therapy” (Eur J Med Chem, 2024).

Columns and labels:
[1] = biological target: Signal transducer and activator of transcription 3 (Homo sapiens, UniProt P40763); assay: Binding affinity to STAT3 (unknown origin) assessed as dissociation constant by SPR assay
A549 [2] = assay: cells; assay type: functional, cell-based; conditions: Homo sapiens, A549, 72 h
Description: Antiproliferative activity against human A549 cells assessed as inhibition of cell proliferation incubated for 72 hrs by CCK-8 assay

Histone deacetylase 2 = Histone deacetylase 2 (Homo sapiens, UniProt Q92769); assay: Inhibition of recombinant human HDAC2 using Boc-Lys (acetyl)-AMC as substrate preincubated with compound for 1 hr followed by substrate addition and measured after 30 mins by microplate reader assay
Histone deacetylase 3 = Histone deacetylase 3 (Homo sapiens, UniProt O15379); assay: Inhibition of recombinant human HDAC3 using Boc-Lys (acetyl)-AMC as substrate preincubated with compound for 1 hr followed by substrate addition and measured after 30 mins by microplate reader assay
Histone deacetylase 1 = Histone deacetylase 1 (Homo sapiens, UniProt Q13547); assay: Inhibition of recombinant human HDAC1 using Boc-Lys (acetyl)-AMC as substrate preincubated with compound for 1 hr followed by substrate addition and measured after 30 mins by microplate reader assay
[3] = biological target: T1, Protein deacetylase HDAC6 (Homo sapiens, UniProt Q9UBN7); assay: Inhibition of recombinant human HDAC6 using Boc-Lys (acetyl)-AMC as substrate preincubated with compound for 1 hr followed by substrate addition and measured after 30 mins by microplate reader assay
T1 sequence (Q9UBN7 whole entry): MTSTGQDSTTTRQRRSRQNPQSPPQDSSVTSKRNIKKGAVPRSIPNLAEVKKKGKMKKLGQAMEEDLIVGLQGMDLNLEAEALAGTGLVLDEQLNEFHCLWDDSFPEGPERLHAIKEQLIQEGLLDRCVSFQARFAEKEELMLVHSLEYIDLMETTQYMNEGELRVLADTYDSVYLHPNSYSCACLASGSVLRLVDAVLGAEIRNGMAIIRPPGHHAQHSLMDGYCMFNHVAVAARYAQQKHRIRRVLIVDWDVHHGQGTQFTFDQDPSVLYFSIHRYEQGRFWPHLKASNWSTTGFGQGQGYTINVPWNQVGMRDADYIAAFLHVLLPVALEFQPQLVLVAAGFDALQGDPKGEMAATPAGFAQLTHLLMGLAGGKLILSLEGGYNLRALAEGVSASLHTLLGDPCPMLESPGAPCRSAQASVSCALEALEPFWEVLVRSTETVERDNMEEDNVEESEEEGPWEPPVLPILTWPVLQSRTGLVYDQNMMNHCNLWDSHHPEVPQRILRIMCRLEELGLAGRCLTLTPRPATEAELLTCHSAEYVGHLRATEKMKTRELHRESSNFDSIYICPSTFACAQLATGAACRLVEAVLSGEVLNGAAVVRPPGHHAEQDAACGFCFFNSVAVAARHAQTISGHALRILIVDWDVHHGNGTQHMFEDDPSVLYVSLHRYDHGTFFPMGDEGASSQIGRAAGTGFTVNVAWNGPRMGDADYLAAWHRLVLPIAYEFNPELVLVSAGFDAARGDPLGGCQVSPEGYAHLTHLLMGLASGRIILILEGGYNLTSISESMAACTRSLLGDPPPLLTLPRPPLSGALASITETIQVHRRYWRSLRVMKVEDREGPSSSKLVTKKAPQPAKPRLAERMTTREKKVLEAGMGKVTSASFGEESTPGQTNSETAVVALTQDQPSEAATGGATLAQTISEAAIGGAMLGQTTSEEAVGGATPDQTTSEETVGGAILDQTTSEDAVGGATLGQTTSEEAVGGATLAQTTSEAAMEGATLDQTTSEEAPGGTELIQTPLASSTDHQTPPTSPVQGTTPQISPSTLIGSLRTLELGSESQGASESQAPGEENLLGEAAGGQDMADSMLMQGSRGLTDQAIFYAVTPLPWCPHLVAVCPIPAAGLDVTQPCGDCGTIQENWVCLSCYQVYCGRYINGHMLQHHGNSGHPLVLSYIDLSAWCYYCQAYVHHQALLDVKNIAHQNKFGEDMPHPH

A549 [4] = assay: Induction of apoptosis in human A549 cells assessed as necrotic cells at 2 uM incubated for 24 hrs by Annexin V-FITC/PI staining based flow cytometric analysis (reference value: 1.20%); assay type: functional
HeLa = assay: cells; assay type: functional, cell-based; conditions: Homo sapiens, 72 h
Description: Antiproliferative activity against human Hela cells assessed as inhibition of cell proliferation incubated for 72 hrs by CCK-8 assay

A549 [5] = assay: Induction of apoptosis in human A549 cells assessed as late apoptotic cells at 2 uM incubated for 24 hrs by Annexin V-FITC/PI staining based flow cytometric analysis (reference value: 2.18%); assay type: functional
HepG2 = assay: Antiproliferative activity against human HepG2 cells assessed as inhibition of cell proliferation incubated for 72 hrs by CCK-8 assay; assay type: functional, cell-based; conditions: HepG2, 72 h
A549 [6] = assay: Induction of apoptosis in human A549 cells assessed as viable cells at 2 uM incubated for 24 hrs by Annexin V-FITC/PI staining based flow cytometric analysis (reference value: 95.08%); assay type: functional
A549 [7] = assay: Induction of apoptosis in human A549 cells assessed as early apoptotic cells at 2 uM incubated for 24 hrs by Annexin V-FITC/PI staining based flow cytometric analysis (reference value: 1.53%); assay type: functional
HCT-116 = assay: cells; conditions: Homo sapiens, HCT-116, 72 h
Description: Antiproliferative activity against human HCT-116 cells assessed as inhibition of cell proliferation incubated for 72 hrs by CCK-8 assay

A549 [8] = assay: In vivo antitumor activity against human A549 cells xenografted in female BALB/c nu/nu mouse assessed as tumor volume at 10 mg/kg, iv administered every 3 days and measured on 18 day relative to control; assay type: functional; conditions: time 3 day

Chain of Signal transducer and activator of transcription 3 (P40763 whole entry): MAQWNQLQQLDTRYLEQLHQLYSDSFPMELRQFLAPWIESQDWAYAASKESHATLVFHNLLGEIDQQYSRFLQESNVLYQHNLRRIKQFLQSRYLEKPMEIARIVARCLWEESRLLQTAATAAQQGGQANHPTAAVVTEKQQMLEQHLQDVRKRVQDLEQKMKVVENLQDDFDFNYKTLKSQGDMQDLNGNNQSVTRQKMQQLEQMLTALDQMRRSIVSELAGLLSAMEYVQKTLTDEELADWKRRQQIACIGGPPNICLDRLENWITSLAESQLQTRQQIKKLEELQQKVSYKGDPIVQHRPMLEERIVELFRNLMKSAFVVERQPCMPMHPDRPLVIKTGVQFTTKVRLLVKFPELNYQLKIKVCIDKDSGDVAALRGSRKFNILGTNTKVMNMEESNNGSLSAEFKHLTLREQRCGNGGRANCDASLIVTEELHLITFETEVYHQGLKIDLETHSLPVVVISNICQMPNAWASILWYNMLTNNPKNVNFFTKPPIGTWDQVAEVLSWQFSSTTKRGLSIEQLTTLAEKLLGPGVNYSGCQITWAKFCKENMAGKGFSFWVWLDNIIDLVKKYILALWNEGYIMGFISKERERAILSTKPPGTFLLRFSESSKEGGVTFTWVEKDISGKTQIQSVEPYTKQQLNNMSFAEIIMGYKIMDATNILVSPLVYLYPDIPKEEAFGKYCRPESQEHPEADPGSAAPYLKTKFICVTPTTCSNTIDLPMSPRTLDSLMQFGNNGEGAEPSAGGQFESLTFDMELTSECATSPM
Chain of Histone deacetylase 2 (Q92769 whole entry): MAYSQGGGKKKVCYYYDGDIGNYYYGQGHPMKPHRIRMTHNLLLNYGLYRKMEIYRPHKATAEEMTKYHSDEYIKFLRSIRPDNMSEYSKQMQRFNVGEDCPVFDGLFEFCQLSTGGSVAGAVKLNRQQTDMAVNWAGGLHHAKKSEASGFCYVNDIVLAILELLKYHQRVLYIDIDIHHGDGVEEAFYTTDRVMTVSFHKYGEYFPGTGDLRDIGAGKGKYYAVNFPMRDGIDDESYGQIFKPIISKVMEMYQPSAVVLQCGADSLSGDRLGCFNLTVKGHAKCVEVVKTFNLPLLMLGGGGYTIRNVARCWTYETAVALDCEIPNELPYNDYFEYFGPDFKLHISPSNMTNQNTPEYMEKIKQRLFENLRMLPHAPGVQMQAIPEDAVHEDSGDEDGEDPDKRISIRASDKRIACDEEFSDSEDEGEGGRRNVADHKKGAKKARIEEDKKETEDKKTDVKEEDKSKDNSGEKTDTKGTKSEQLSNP
Chain of Histone deacetylase 3 (O15379 whole entry): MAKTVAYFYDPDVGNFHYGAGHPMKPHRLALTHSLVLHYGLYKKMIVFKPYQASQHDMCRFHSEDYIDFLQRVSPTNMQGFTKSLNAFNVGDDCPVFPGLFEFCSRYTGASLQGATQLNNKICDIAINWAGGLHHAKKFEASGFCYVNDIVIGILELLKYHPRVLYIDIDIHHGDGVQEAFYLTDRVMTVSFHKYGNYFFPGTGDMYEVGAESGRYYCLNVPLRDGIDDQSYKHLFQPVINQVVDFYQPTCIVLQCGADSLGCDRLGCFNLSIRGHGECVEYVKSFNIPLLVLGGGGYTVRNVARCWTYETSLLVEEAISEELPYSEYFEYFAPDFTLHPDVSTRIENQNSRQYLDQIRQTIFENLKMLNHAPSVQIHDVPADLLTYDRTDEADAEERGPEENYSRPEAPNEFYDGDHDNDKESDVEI
Chain of Histone deacetylase 1 (Q13547 whole entry): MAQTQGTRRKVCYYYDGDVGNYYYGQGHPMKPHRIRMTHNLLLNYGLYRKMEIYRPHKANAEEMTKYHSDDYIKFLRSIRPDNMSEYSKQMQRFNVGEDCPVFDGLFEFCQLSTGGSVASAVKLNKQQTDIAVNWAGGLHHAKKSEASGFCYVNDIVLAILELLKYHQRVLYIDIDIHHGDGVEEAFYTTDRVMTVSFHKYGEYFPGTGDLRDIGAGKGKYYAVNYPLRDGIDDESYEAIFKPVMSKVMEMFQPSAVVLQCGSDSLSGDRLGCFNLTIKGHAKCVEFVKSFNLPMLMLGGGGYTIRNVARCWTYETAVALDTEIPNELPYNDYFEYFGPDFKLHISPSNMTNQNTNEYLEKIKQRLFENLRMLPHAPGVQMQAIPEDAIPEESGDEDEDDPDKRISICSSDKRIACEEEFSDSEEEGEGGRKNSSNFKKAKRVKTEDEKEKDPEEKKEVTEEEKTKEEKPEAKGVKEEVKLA

| Compound | Kd [1] | IC50 (A549 [2]) | IC50 (Histone deacetylase 2) | IC50 (Histone deacetylase 3) | IC50 (Histone deacetylase 1) | IC50 [3] | Activity (A549 [4]) | IC50 (HeLa) | Activity (A549 [5]) | IC50 (HepG2) | viability at 2 µM (A549 [6]; Homo sapiens, A549, read-out: Activity) | Activity (A549 [7]) | IC50 (HCT-116) | Activity (A549 [6]) | Activity (A549 [8]) |
| --- | --- | --- | --- | --- | --- | --- | --- | --- | --- | --- | --- | --- | --- | --- | --- |
| Nc1ccc(F)cc1NC(=O)c1ccc(CNC(=O)/C=C/c2cccnc2)cc1 | > 50 µM | 6.4 µM | 0.212 µM |  |  |  |  |  |  |  |  |  |  |  |  |
| C=C1C(=O)O[C@@H]2C[C@@]3(C)CC[C@@H](OC(=O)[C@@H](CC(C)C)NC(=O)c4ccc(C(=O)Nc5ccccc5N)cc4)C(=C)[C@@H]3C[C@H]12 | 6.88 µM | 5.61 µM | > 1 µM | > 1 µM | 0.453 µM | > 1 µM |  |  |  |  |  |  |  |  |  |
| C=C1C(=O)O[C@@H]2C[C@@]3(C)CC[C@@H](OC(=O)CNC(=O)c4cccc(/C=C/C(=O)NO)c4)C(=C)[C@@H]3C[C@H]12 |  | 1.87 µM | 0.0927 µM | 0.0631 µM | 0.0865 µM | 0.0453 µM |  |  |  |  |  |  |  |  |  |
| C=C1C(=O)O[C@@H]2C[C@@]3(C)CC[C@@H](OC(=O)[C@H](C)NC(=O)c4cccc(/C=C/C(=O)NO)c4)C(=C)[C@@H]3C[C@H]12 | 12.3 µM | 4.53 µM | 0.404 µM | 0.113 µM | 0.206 µM | 0.0624 µM |  |  |  |  |  |  |  |  |  |
| C=C1C(=O)O[C@@H]2C[C@@]3(C)CC[C@@H](OC(=O)[C@H](CC)NC(=O)c4ccc(C(=O)Nc5ccccc5N)cc4)C(=C)[C@@H]3C[C@H]12 | 22.6 µM | > 10 µM | > 1 µM | > 1 µM | > 1 µM | > 1 µM |  |  |  |  |  |  |  |  |  |
| C=C1C(=O)O[C@@H]2C[C@@]3(C)CC[C@@H](OC(=O)[C@@H](C)NC(=O)c4ccc(C(=O)Nc5ccccc5N)cc4)C(=C)[C@@H]3C[C@H]12 | 4.96 µM | 2.24 µM | 0.507 µM | 0.473 µM | 0.122 µM | > 1 µM |  |  |  |  |  |  |  |  |  |
| C=C1C(=O)O[C@@H]2C[C@@]3(C)CC[C@@H](OC(=O)[C@@H](C)NC(=O)c4ccc(/C=C/C(=O)NO)cc4)C(=C)[C@@H]3C[C@H]12 | 3.89 µM | 4.53 µM | 0.342 µM | 0.272 µM | 0.193 µM | 0.064 µM |  |  |  |  |  |  |  |  |  |
| C=C1C(=O)O[C@@H]2C[C@@]3(C)CC[C@@H](OC(=O)[C@@H](NC(=O)c4ccc(C(=O)Nc5ccccc5N)cc4)C(C)C)C(=C)[C@@H]3C[C@H]12 | 17.4 µM | > 10 µM | > 1 µM | > 1 µM | > 1 µM | > 1 µM |  |  |  |  |  |  |  |  |  |
| C=C1C(=O)O[C@@H]2C[C@@]3(C)CC[C@@H](OC(=O)[C@H](C)NC(=O)c4ccc(C(=O)Nc5ccccc5N)cc4)C(=C)[C@@H]3C[C@H]12 | 8.96 µM | 3.34 µM | > 1 µM | > 1 µM | > 1 µM | > 1 µM |  |  |  |  |  |  |  |  |  |
| C=C1C(=O)O[C@@H]2C[C@@]3(C)CC[C@@H](OC(=O)CNC(=O)c4ccc(C(=O)NO)cc4)C(=C)[C@@H]3C[C@H]12 | > 50 µM | 2.56 µM | 0.189 µM | 0.107 µM | 0.202 µM | 0.0875 µM |  |  |  |  |  |  |  |  |  |
| C=C1C(=O)O[C@@H]2C[C@@]3(C)CCCC(=C)[C@@H]3C[C@H]12 [ISOALANTOLACTONE] | 46.1 µM | 1.81 µM | > 1 µM | > 1 µM | > 1 µM | > 1 µM | 1.82% | 4.38 µM | 10.91% | 7.25 µM | 83.6% | 3.67% | 2.61 µM |  |  |
| C=C1C(=O)O[C@@H]2C[C@@]3(C)CC[C@@H](OC(=O)[C@H](C)NC(=O)c4ccc(C(=O)NO)cc4)C(=C)[C@@H]3C[C@H]12 | > 50 µM | > 10 µM | 0.844 µM | 0.441 µM | 0.568 µM | 0.267 µM |  |  |  |  |  |  |  |  |  |
| O=C(CCCCCCC(=O)Nc1ccccc1)NO [VORINOSTAT] | > 50 µM |  |  |  |  |  | 2.58% |  | 24.68% |  |  | 5.72% | 1.87 µM | 67.04% | 61% |
| C=C1C(=O)O[C@@H]2C[C@@]3(C)CC[C@@H](OC(=O)[C@H](NC(=O)c4ccc(C(=O)Nc5ccccc5N)cc4)C(C)C)C(=C)[C@@H]3C[C@H]12 | > 50 µM | > 10 µM | > 1 µM | > 1 µM | > 1 µM | > 1 µM |  |  |  |  |  |  |  |  |  |
| C=C1C(=O)O[C@@H]2C[C@@]3(C)CC[C@@H](OC(=O)CNC(=O)c4ccc(C(=O)Nc5ccccc5N)cc4)C(=C)[C@@H]3C[C@H]12 | 39.3 µM | > 10 µM | > 1 µM | > 1 µM | > 1 µM | > 1 µM |  |  |  |  |  |  |  |  |  |
| C=C1C(=O)O[C@@H]2C[C@@]3(C)CC[C@@H](OC(=O)[C@@H](Cc4ccccc4)NC(=O)c4ccc(C(=O)Nc5ccccc5N)cc4)C(=C)[C@@H]3C[C@H]12 | 4.76 µM | 7.47 µM | > 1 µM | > 1 µM | 0.622 µM | > 1 µM |  |  |  |  |  |  |  |  |  |
| C=C1C(=O)O[C@@H]2C[C@@]3(C)CC[C@@H](OC(=O)[C@@H](C)NC(=O)c4cccc(/C=C/C(=O)NO)c4)C(=C)[C@@H]3C[C@H]12 | 13.5 µM | 4.33 µM | 0.313 µM | 0.103 µM | 0.197 µM | 0.0869 µM |  |  |  |  |  |  |  |  |  |
| C=C1C(=O)O[C@@H]2C[C@@]3(C)CC[C@@H](OC(=O)[C@H](Cc4ccccc4)NC(=O)c4ccc(C(=O)Nc5ccccc5N)cc4)C(=C)[C@@H]3C[C@H]12 | > 50 µM | > 10 µM | > 1 µM | > 1 µM | > 1 µM | > 1 µM |  |  |  |  |  |  |  |  |  |
| C=C1C(=O)O[C@@H]2C[C@@]3(C)CC[C@@H](OC(=O)[C@@H](CC)NC(=O)c4ccc(C(=O)Nc5ccccc5N)cc4)C(=C)[C@@H]3C[C@H]12 | 20.7 µM | 6.67 µM | > 1 µM | > 1 µM | 6.51 µM | > 1 µM |  |  |  |  |  |  |  |  |  |
| C=C1C(=O)O[C@@H]2C[C@@]3(C)CC[C@@H](OC(=O)[C@H](CC(C)C)NC(=O)c4ccc(C(=O)Nc5ccccc5N)cc4)C(=C)[C@@H]3C[C@H]12 | > 50 µM | > 10 µM | > 1 µM | > 1 µM | > 1 µM | > 1 µM |  |  |  |  |  |  |  |  |  |
| C=C1C(=O)O[C@@H]2C[C@@]3(C)CC[C@@H](OC(=O)[C@@H](C)NC(=O)c4ccc(C(=O)NO)cc4)C(=C)[C@@H]3C[C@H]12 | 20.1 µM | > 10 µM | > 1 µM | > 1 µM | 0.748 µM | 0.163 µM |  |  |  |  |  |  |  |  |  |
